{"source": "patent US20230416677A1", "about": "(XCELL THERAPEUTICS INC., priority 2020, published 2023)", "key": {"cell division": {"system": "cell division", "conditions": "background statement; cited from earlier work"}, "[1]": {"system": "Human dermal papilla cells (hDPC)", "test": "Flow cytometry of dermal papilla cell biological markers", "assay_type": "cell-based", "conditions": "serum-free medium with 0.1 g/L albumin and 1 to 100 pM rotenone versus control not treated with rotenone; FIG. 4", "description": "The cells were detached from each flask by the use of TrypLE Express, and then the cells were centrifuged. The supernatant was discarded to leave only the cells in the lower layer. The cells were fixed for 15 minutes using a 4% formaldehyde solution, and then reacted on ice for 10 minutes using a 0.5% tween-20 permeabilization solution to prepare cells. The prepared cells were well resuspended in PBS supplemented with 1% FBS, and then the cells were stained using an antibody serving as a previously selected biological marker. CD34 and HLA-DR were selected as negative markers, and alkaline phosphatase, versican, and CD105 were selected as positive markers. After fixing the stained cells with 4% formaldehyde solution for 15 minutes, and flow cytometry was performed using CytoFLEX (Beckman Coulter, USA)."}, "[2]": {"system": "Human dermal papilla cells (hDPC)", "test": "Passage culture of dermal papilla cells in albumin-added serum-free medium in the presence or absence of rotenone (density, doubling time, accumulated cell number, viability)", "assay_type": "cell-based", "description": "hDPCs were prepared in the same manner as in Example 1. […] The hDPCs were inoculated at a concentration of 1.52×10^5/flask. After culturing in a 5% carbon dioxide incubator at 37° C., photographs of the cells were taken before passage to confirm the density of dermal papilla cells according to the rotenone treatment.\nOn the other hand, each time the density of the cells proliferated to 90% or more, the cells were passaged. During the passage, the cells were detached from each flask by the use of TrypLE Express, and then the cells were centrifuged. The supernatant was discarded to leave only the cells in the lower layer. The cells were well resuspended by adding a condition-based medium, and then the cell numbers were measured using NC250™ (Chemometec, Denmark). Using the measured cell number and culture time, the doubling time and accumulated cell numbers per day were calculated using the following Equation.\nA=previous passage, B=current passage\nDoubling time=ln(2)×(Δtime between B and A)/ln(count B/count A) [Equation 1]\nAccumulated cell number (ACN)=ACN of A×cell count of B/seeding number [Equation 2]\nEach time the density of the cells proliferated to 90% or more, the cells were passaged. During the passage, the cells were detached from each flask by the use of TrypLE Express, and then the cells were centrifuged. The supernatant was discarded to leave only the cells in the lower layer. The cells were well resuspended by adding a condition-based medium, and then the cell viability was measured using NC250™(Chemometec, Denmark) at each passage."}, "[3]": {"system": "Human dermal papilla cells (hDPC)", "test": "CCK-8 proliferation of dermal papilla cells in serum-free medium treated with rotenone", "assay_type": "cell-based", "conditions": "rotenone 10 to 100 pM, 72 hours, compared to control group (untreated) and PromoCell medium, FIG. 1", "description": "Human dermal papilla cells (hDPC) purchased from PromoCell were inoculated in a Follicle Dermal Papilla cell Growth media (Promocell, Heidelberg, Germany) supplemented with 1% Antibiotic and Antimycotic Hyclone sv30079.91 (hereinafter referred to as Promocell medium), and a serum-free medium, and cultured in a 5% carbon dioxide incubator at 37° C. to prepare cells. The prepared human dermal papilla cells (hDPCs) were seeded at a concentration of 2×10^3/well into 96-well plates, in which a serum-free medium treated with different concentrations (0, 1, 10, 100, 1000 pM) of rotenone (Tocris Bioscience, UK) was put, in a Follicle Dermal Papilla cell Growth media as a commercially available medium, and then cultured for 72 hours. Then, the culture medium in each well was removed, then added to 10 ul CCK-8 reagent and 90 ul medium, respectively, and cultured for 2 hours at a temperature of 37° C. The absorbance of the supernatant was measured at 450 nm using an ELISA reader to confirm the extent of cell proliferation."}}}
{"compound": "C=C(C)[C@H]1Cc2c(ccc3c2OC2COc4cc(OC)c(OC)cc4C2C3=O)O1", "note": "(stereo in doubt) [rotenone, (2R,6aS,12aS)-1,2,6,6a,12 ,12a-hexahydro-2-isopropenyl-8,9-dimethoxychromeno[3,4-b]furo(2,3-h)chromen-6-one]", "values": [{"measurement": "concentrations at which rotenone is known to inhibit cell division", "setting": "cell division", "value": "10 to 100", "unit": "nM"}, {"measurement": "biological positive markers (alkaline phosphatase, versican, CD105)", "setting": "[1]", "value": "maintained at higher levels"}, {"measurement": "negative markers (CD34, HLA-DR)", "setting": "[1]", "value": "maintained at lower levels"}, {"measurement": "cell density of dermal papilla cells", "setting": "[2]; 10 pM rotenone versus rotenone-untreated group, serum-free medium with 0.1 g/L albumin, FIG. 3a", "value": "higher cell density"}, {"measurement": "doubling time", "setting": "[2]; rotenone -treated versus rotenone-untreated group, serum-free medium with 0.1 g/L albumin, FIG. 3b", "value": "lower doubling time"}, {"measurement": "cell viability", "setting": "[2]; rotenone-treated versus rotenone-untreated group, 0.1 g/L albumin, each passage, FIG. 3d", "value": "higher cell viability"}, {"measurement": "accumulated cell numbers over time", "setting": "[2]; rotenone-treated versus rotenone-untreated group, 0.1 g/L albumin, FIG. 3c", "value": "higher"}, {"measurement": "proliferation of dermal papilla cells (CCK-8, absorbance 450 nm)", "setting": "[3]", "value": "proliferation of dermal papilla cells increases"}]}
